# How the values were obtained:
# rat EP1 receptor [1] = molecular target: T1, rat EP1 receptor (Rattus norvegicus, UniProt P70597); assay: Receptor antagonistic activity using cells expressing an EP1 receptor (PGE2-induced intracellular Ca change, FLIPR); type: cell-based; details: HEK293 cells stably expressing rat EP1 receptors; 100 nM PGE2; Ca concentration in cells
# T1 sequence (P70597 1-405): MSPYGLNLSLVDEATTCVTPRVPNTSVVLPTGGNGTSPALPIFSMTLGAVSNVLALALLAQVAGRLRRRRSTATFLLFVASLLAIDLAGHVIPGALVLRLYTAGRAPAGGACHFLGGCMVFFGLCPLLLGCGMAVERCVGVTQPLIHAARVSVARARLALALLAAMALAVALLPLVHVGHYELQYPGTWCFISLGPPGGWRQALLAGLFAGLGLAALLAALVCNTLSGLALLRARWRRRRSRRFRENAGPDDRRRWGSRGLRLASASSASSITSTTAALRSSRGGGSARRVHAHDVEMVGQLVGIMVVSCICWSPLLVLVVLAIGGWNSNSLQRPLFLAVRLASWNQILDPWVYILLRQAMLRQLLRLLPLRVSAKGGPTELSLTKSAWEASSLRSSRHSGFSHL
# Experimental: 1. Experiment to Measure a Receptor Antagonistic Activity Using Cells Expressing an EP1 Receptor
# HEK293 cells (American Type Culture Collection) that stably expressed rat EP1 receptors were dispensed onto a 96-well poly-D-lysine-coated plate (Product Name: Biocoat, PDL96W black/clear, Nippon Becton Dickinson) to a 2×10^4 cells/well at the day before the experiment, and incubated overnight at 37° C. under 5% carbon dioxide (CO2) in a culture medium containing 10% fetal bovine serum (FBS) (Product Name: DMEM, Invitrogen Corporation). The culture medium was replaced by a loading buffer (a washing solution containing a 4 μM fluorescent indicator (Product Name: Fluo3-AM, Tong Ren Tang Technologies Co. Ltd.):a Hank's balanced salt solution)(HBSS), 20 mM 2-[4-(2-hydroxyethyl)-1-piperazinyl]ethanesulfonic acid (HEPES)-sodium hydroxide (NaOH), 2.5 mM Probenecid, 0.1% bovine serum albumin (BSA)), and left to stand at room temperature for 3 hours, and the cells were washed using a plate washer in which a washing solution had been set up (Product Name: ELx405, BIO-TEK instrument Corporation). The compound that had been preliminarily dissolved and diluted in a washing solution was added thereto, and set up in a system for measuring a calcium (Ca) concentration in a cell (Product Name: FLIPR, Molecular Devices Corporation). After 5 minutes, PGE2 was added to a final concentration of 100 nM, and the change in Ca concentrations in cells was measured. A difference between a maximum value and a minimum value in Ca concentrations in cells was determined, and kept as measurement data. With a response upon addition of 100 nM PGE2 being set at […], and a response upon addition of a buffer being set at 100%, the concentration causing 50% inhibition was determined as an IC50 value.
# In the table, Pre represents Preparative Example No. as described later, and Ex represent Example No. as described later.
# rat EP1 receptor [2] = molecular target: T1, rat EP1 receptor; assay: Receptor binding test using EP1 receptor-expressing cells (3H-PGE2 binding to membrane sample); set-up: expressed in transfected cells; host or cells: HEK293EBNA cells, pCEP4 vector, transient (2 days); crude membrane sample; details: membrane of HEK293EBNA cells expressing rat EP1; 2.5 nM 3H-PGE2; Ki=IC50/(1+([C]/Kd))
# From the text: (2) Receptor Binding Test Using EP1 Receptor-Expressing Cells
# A signal peptide (MKTIIALSYIFCLVFA: SEQ ID NO: 1) and a FLAG sequence (DYKDDDDK: SEQ ID NO: 2) were introduced at the N-terminus of a rat EP1 receptor, followed by subcloning into an expression vector (Product Name: pCEP4, Invitrogen Corporation). An HEK293EBNA cell (American Type Culture Collection) was transfected with the rat EP1 expression vector using a transfection regent (Product Name: Fugene-6, Roche-Diagnostics, K.K), and then cultured for 2 days in a medium containing 10% FBS (Product Name: DMEM, Invitrogen Corporation) at 37° C. under 5% CO2. After culturing, the cells were recovered, treated with a cell lysate (20 mM Tris(hydroxymethyl)aminomethane (Tris)buffer pH7.5, 5 mM ethylene diaminetetraacetic acid(EDTA)), and ultracentrifuged (23,000 revolution, 25 minutes×2) for a rough preparation of a membrane sample.
# A reaction solution containing the prepared membrane sample (15 μg) and ^3H-PGE2 (150 μl, composition: 10 mM 2-(N-morpholino)ethanesulfonic acid (MES)/potassium hydroxide(KOH) pH6.0, 1 mM EDTA, 10 mM magnesium chloride (MgCl2), 0.02% 3-[(3-Cholamidopropyl)dimethylammonio] propanesulfonate (CHAPS)) was incubated at room temperature for 1 hour. The reaction was terminated with an ice-cooled buffer, and suction-filtered under reduced pressure to trap the bound ^3H-PGE2 to a glass fiber filter (Product Name: UNIFILTER-96, GF/B, PerkinElmer Japan Co., Ltd.), so as to measure the radioactivity of the binding with a microplate scintillation counter (Product Name: TopCount, Packard) using Microscinti (Product Name: Microscinti 20, PerkElmer Japan Co., Ltd.).
# The dissociation constant (Kd) and the maximum binding (Bmax) were determined using Scatchard plot (Annals of the New York Academy of Science, US, volume 51, page 660, 1949). Nonspecific bindings were determined as bindings in the presence of an excessive amount (2.5 μM) of label-free PGE2. The assessment of inhibitory effect on ^3H-PGE2 binding by the compound was carried out by adding 2.5 nM ^3H-PGE2 and the compound.
# The inhibition constant Ki(nM) for each compound was obtained using the following formula: Ki=IC50/(1+([C]/Kd))
# wherein [C] represents the concentration of ^3H-PGE2 employed in a reaction system.
SMILES,IC50 (rat EP1 receptor [1]),Ki (rat EP1 receptor [2])
COC(=O)c1ccc(CNC(=O)CN(c2cccc(Cl)c2C)S(=O)(=O)c2ccc(C)cc2)cc1 [Ex24],1 nM,
Cc1ccc(S(=O)(=O)N(CC(=O)NCc2cccc(OCC(=O)O)c2)c2cccc(Cl)c2C)cc1 [Ex16],2.4 nM,1 nM
"COc1ccc(CNC(=O)CN(c2cccc(Cl)c2C)S(=O)(=O)c2ccc(C)cc2)cc1 [Pre1, N^2-(3-chloro-2-methylphenyl)-N-(4-methoxybenzyl)-N^2-[(4-methylphenyl)sulfonyl] glycinamide]",16 nM,0.68 nM
CCc1c(Cl)cccc1N(CC(=O)NCc1cccc(/C=C/C(=O)O)c1)S(=O)(=O)c1ccc(C)cc1 [Ex74],1 nM,0.35 nM
Cc1ccc(S(=O)(=O)N(CC(=O)NCc2cccc(C(=O)O)c2)c2cccc(Cl)c2C)cc1 [Ex7],1.6 nM,0.57 nM
Cc1ccc(S(=O)(=O)N(CC(=O)NCc2ccc(C(=O)NS(C)(=O)=O)cc2)c2cccc(Cl)c2C)cc1 [Ex20],1.4 nM,0.74 nM
COc1c(Cl)cccc1N(CC(=O)NCc1cccc(C(=O)O)c1)S(=O)(=O)c1ccc(C)cc1 [Ex38],1.5 nM,0.48 nM
Cc1ccc(S(=O)(=O)N(CC(=O)NCc2ccncn2)c2cccc(Cl)c2C)cc1 [Pre15],12 nM,
CCc1c(Cl)cccc1N(CC(=O)NCc1cccc(C(=O)O)c1)S(=O)(=O)c1ccc(C)cc1 [Ex40],0.72 nM,0.33 nM
Cc1ccc(S(=O)(=O)N(CC(=O)NCc2ccc(-n3cccn3)cc2)c2cccc(Cl)c2C)cc1 [Ex26],2.5 nM,

# Source: patent publication US7973078B2, “Sulfonamide compound or salt thereof” (Astellas Pharma Inc., priority 2006, dated 2011)
